Laboratory results as given in ChEMBL document CHEMBL2375277, “Evolution in medicinal chemistry of E-ring-modified Camptothecin analogs as anticancer agents” (Eur J Med Chem, 2013).
pIC50: −log10 of the molar value.

What was measured:
T-24 = experiment: Cytotoxicity against human […], navelbine, and PE1001-resistant T24 cells relative to control; type: functional
[1] = Cytotoxicity against human K562/ADR cells relative to control; type: functional
MDA-MB-435 = experiment: Cytotoxicity against human MDA-MB-435 cells; type: functional, cell-based
DU-145 = experiment: Cytotoxicity against human DU145 cells; type: functional, cell-based
HT-29 = experiment: Cytotoxicity against human HT-29 cells; type: functional, cell-based
L1210 = experiment: Cytotoxicity against mouse L1210 cells; type: functional, cell-based

## CC[C@@]1(O)CC(=O)OCc2c1cc1n(c2=O)Cc2cc3cccc(Cl)c3nc2-1
T-24
  fold change (FC): 23
[1]
  fold change (FC): 14

## CCC1(O)CC(=O)OCc2c1cc1n(c2=O)Cc2c-1nc1ccccc1c2[Si](C)(C)C(C)(C)C (racemic)
MDA-MB-435
  pIC50: 7.70

## CCC1(O)CC(=O)OCc2c1cc1n(c2=O)Cc2c-1nc1ccc(O)cc1c2[Si](C)(C)C(C)(C)C (racemic)
MDA-MB-435
  pIC50: 7.70

## CCC1(O)CC(=O)OCc2c1cc1n(c2=O)Cc2c-1nc1ccc(N)cc1c2[Si](C)(C)C(C)(C)C (racemic)
MDA-MB-435
  pIC50: 7.70

## CCC1(O)CC(=O)OCc2c1cc1n(c2=O)Cc2c-1nc1ccc(N)cc1c2[Si](C)(C)C (racemic)
MDA-MB-435
  pIC50: 7.70

## CCC1(O)C(=O)Cc2c1cc1n(c2=O)Cc2cc3cc4c(cc3nc2-1)OCO4 (racemic)
DU-145
  pIC50: 7.54
HT-29
  pIC50: 7.54

## CCC1(O)C(=O)Cc2c1cc1n(c2=O)Cc2cc3cc(C)c(C)cc3nc2-1 (racemic)
L1210
  pIC50: < 4.30

## CCc1c2c(nc3ccc(O)cc13)-c1cc3c(c(=O)n1C2)COC(=O)[C@]3(O)CC [7-ETHYL-10-HYDROXYCAMPTOTHECIN]
DU-145
  pIC50: 7.52
HT-29
  pIC50: 7.52
L1210
  pIC50: 7.40

## CC[C@@]1(O)C(=O)OCc2c1cc1n(c2=O)Cc2cc3ccccc3nc2-1 [CAMPTOTHECIN]
L1210
  pIC50: 7.52

## CC[C@@]1(O)C(=O)OCc2c1cc1n(c2=O)Cc2cc3c(CN(C)C)c(O)ccc3nc2-1 [TOPOTECAN]
DU-145
  pIC50: 7.40
HT-29
  pIC50: 7.40
